Source: PubChem BioAssay AID180 (DTP/NCI, 2004)
“And” between values parts separate entries of the source, which are not always exact repeats. Equal entries are not always repeated.

Test system: BDF1 mice, Adenocarcinoma 755 s.c., tumor weight T/C
Test: NCI In Vivo Anticancer Drug Screen. Data for tumor model Adenocarcinoma 755 (subcutaneous) in B6D2F1 (BDF1) mice
Conditions: endpoint: mean tumor weight, higher = larger tumour
In short: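 Compound activity was tested in mice carrying transplanted tumors. Survival or tumor size was measured, and each value is the treated-group measurement divided by that of the vehicle-treated control group (T/C).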

[1] = dose: 15.0 mg/kg/injection, schedule: Q01DX011 (ip), vehicle: methylcellulose (MC)
[2] = dose: 31.0 mg/kg/injection, schedule: Q01DX011 (ip), vehicle: methylcellulose (MC)
[3] = dose: 62.0 mg/kg/injection, schedule: Q01DX011 (ip), vehicle: methylcellulose (MC)
[4] = dose: 125.0 mg/kg/injection, schedule: Q01DX011 (ip), vehicle: methylcellulose (MC)
[5] = dose: 200.0 mg/kg/injection, schedule: Q01DX011 (sc), vehicle: steriod suspending solution
[6] = dose: 400.0 mg/kg/injection, schedule: Q01DX011 (sc), vehicle: steriod suspending solution
[7] = dose: 25.0 mg/kg/injection, schedule: Q01DX011 (ip), vehicle: methylcellulose (MC)
[8] = dose: 50.0 mg/kg/injection, schedule: Q01DX011 (ip), vehicle: methylcellulose (MC)
[9] = dose: 100.0 mg/kg/injection, schedule: Q01DX011 (ip), vehicle: methylcellulose (MC)

Cn1c(=O)c2c(n(C)c1=O)[n+]([O-])c([N+]1([O-])CCOCC1)n2C
T/C (dose: 30.0 mg/kg/injection, schedule: Q01DX011 (ip), vehicle: methylcellulose (MC)): 91 % of control
T/C (dose: 60.0 mg/kg/injection, schedule: Q01DX011 (ip), vehicle: methylcellulose (MC)): 100 % of control
T/C (dose: 120.0 mg/kg/injection, schedule: Q01DX011 (ip), vehicle: methylcellulose (MC)): 95 % of control
T/C (dose: 240.0 mg/kg/injection, schedule: Q01DX011 (ip), vehicle: methylcellulose (MC)): 95 % of control

CCCCn1cnc2c(=S)nc(N)[nH]c21
T/C (dose: 0.6 mg/kg/injection, schedule: Q01DX011 (ip), vehicle: carboxymethylcellulose (CMC)): 57 % of control
T/C (dose: 1.2 mg/kg/injection, schedule: Q01DX011 (ip), vehicle: carboxymethylcellulose (CMC)): 35 % of control
T/C (dose: 1.2 mg/kg/injection, schedule: Q01DX011 (ip), vehicle: olive oil, sesame oil, peanut oil): 60 % of control
T/C (dose: 2.5 mg/kg/injection, schedule: Q01DX011 (ip), vehicle: carboxymethylcellulose (CMC)): 2 % of control
T/C (dose: 2.5 mg/kg/injection, schedule: Q01DX011 (ip), vehicle: olive oil, sesame oil, peanut oil): 33 % of control

O=C(O)c1ccc(-c2ccccc2)cc1
T/C (dose: 200.0 mg/kg/injection, schedule: Q01DX011 (ip), vehicle: carboxymethylcellulose (CMC)): 80 % of control

CSc1nc(N)nc2c1ncn2C1OC(CO)C(O)C1O (stereo not drawn)
T/C (dose: 8.2 mg/kg/injection, schedule: Q01DX011 (ip), vehicle: carboxymethylcellulose (CMC)): 82 % of control
T/C (dose: 16.5 mg/kg/injection, schedule: Q01DX011 (ip), vehicle: carboxymethylcellulose (CMC)): 53 % of control
T/C (dose: 33.0 mg/kg/injection, schedule: Q01DX011 (ip), vehicle: carboxymethylcellulose (CMC)): 20 % of control
T/C (dose: 66.0 mg/kg/injection, schedule: Q01DX011 (ip), vehicle: carboxymethylcellulose (CMC)): 9 % of control
T/C (dose: 66.25 mg/kg/injection, schedule: Q01DX011 (ip), vehicle: methylcellulose (MC)): 9 % of control
T/C (dose: 112.5 mg/kg/injection, schedule: Q01DX011 (ip), vehicle: methylcellulose (MC)): 4 % of control

CN1CC[C@]23c4c5ccc(O)c4O[C@H]2C(=O)CC[C@H]3[C@H]1C5
T/C (dose: 8.0 mg/kg/injection, schedule: Q01DX011 (ip), vehicle: methylcellulose (MC)): 53 % of control and 70 % of control
T/C (dose: 16.0 mg/kg/injection, schedule: Q01DX011 (ip), vehicle: methylcellulose (MC)): 50 % of control and 75 % of control
T/C (dose: 32.0 mg/kg/injection, schedule: Q01DX011 (ip), vehicle: methylcellulose (MC)): 61 % of control

O=Cc1ccccc1
T/C (dose: 3.12 mg/kg/injection, schedule: Q01DX011 (ip), vehicle: Klucel (hydroxypropylcellulose) (HPC)): 80 % of control
T/C (dose: 6.25 mg/kg/injection, schedule: Q01DX011 (ip), vehicle: Klucel (hydroxypropylcellulose) (HPC)): 52 % of control
T/C (dose: 12.5 mg/kg/injection, schedule: Q01DX011 (ip), vehicle: Klucel (hydroxypropylcellulose) (HPC)): 72 % of control
T/C (dose: 25.0 mg/kg/injection, schedule: Q01DX011 (ip), vehicle: Klucel (hydroxypropylcellulose) (HPC)): 109 % of control
T/C (dose: 50.0 mg/kg/injection, schedule: Q01DX011 (ip), vehicle: Klucel (hydroxypropylcellulose) (HPC)): 106 % of control
T/C (dose: 100.0 mg/kg/injection, schedule: Q01DX011 (ip), vehicle: Klucel (hydroxypropylcellulose) (HPC)): 80 % of control
T/C (dose: 200.0 mg/kg/injection, schedule: Q01DX011 (ip), vehicle: Klucel (hydroxypropylcellulose) (HPC)): 55 % of control
T/C (dose: 400.0 mg/kg/injection, schedule: Q01DX011 (ip), vehicle: Klucel (hydroxypropylcellulose) (HPC)): 56 % of control

Cc1ccccc1Nc1nc(N)nc(C)c1Br
T/C [1]: 55 % of control
T/C [2]: 88 % of control
T/C [3]: 106 % of control
T/C [4]: 72 % of control
T/C (dose: 250.0 mg/kg/injection, schedule: Q01DX011 (ip), vehicle: methylcellulose (MC)): 81 % of control

S=c1nc[nH]c2c1ncn2C1CCCCC1
T/C (dose: 62.0 mg/kg/injection, schedule: Q01DX011 (ip), vehicle: carboxymethylcellulose (CMC)): 117 % of control
T/C (dose: 125.0 mg/kg/injection, schedule: Q01DX011 (ip), vehicle: carboxymethylcellulose (CMC)): 118 % of control
T/C (dose: 188.0 mg/kg/injection, schedule: Q01DX011 (oral), vehicle: carboxymethylcellulose (CMC)): 154 % of control
T/C (dose: 250.0 mg/kg/injection, schedule: Q01DX011 (ip), vehicle: carboxymethylcellulose (CMC)): 66 % of control
T/C (dose: 376.0 mg/kg/injection, schedule: Q01DX011 (oral), vehicle: carboxymethylcellulose (CMC)): 104 % of control
T/C (dose: 500.0 mg/kg/injection, schedule: Q01DX011 (ip), vehicle: carboxymethylcellulose (CMC)): 62 % of control
T/C (dose: 752.0 mg/kg/injection, schedule: Q01DX011 (oral), vehicle: carboxymethylcellulose (CMC)): 87 % of control

CSc1nc(=O)cc2[nH]c(O)cn12
T/C (dose: 30.0 mg/kg/injection, schedule: Q01DX011 (ip), vehicle: carboxymethylcellulose (CMC)): 90 % of control
T/C (dose: 60.0 mg/kg/injection, schedule: Q01DX011 (ip), vehicle: carboxymethylcellulose (CMC)): 98 % of control
T/C (dose: 120.0 mg/kg/injection, schedule: Q01DX011 (ip), vehicle: carboxymethylcellulose (CMC)): 50 % of control
T/C (dose: 240.0 mg/kg/injection, schedule: Q01DX011 (ip), vehicle: carboxymethylcellulose (CMC)): 118 % of control

CC(=O)[C@H]1[C@H](O)C[C@H]2[C@@H]3CCC4=CC(=O)CC[C@]4(C)[C@@]3(F)[C@@H](O)C[C@@]21C
T/C (dose: 100.0 mg/kg/injection, schedule: Q01DX011 (sc), vehicle: steriod suspending solution): 48 % of control
T/C (dose: 125.0 mg/kg/injection, schedule: Q01DX011 (oral), vehicle: steriod suspending solution): 74 % of control
T/C [5]: 38 % of control
T/C (dose: 250.0 mg/kg/injection, schedule: Q01DX011 (oral), vehicle: steriod suspending solution): 57 % of control
T/C [6]: 36 % of control
T/C (dose: 500.0 mg/kg/injection, schedule: Q01DX011 (oral), vehicle: steriod suspending solution): 62 % of control
T/C (dose: 800.0 mg/kg/injection, schedule: Q01DX011 (sc), vehicle: steriod suspending solution): 26 % of control
T/C (dose: 1000.0 mg/kg/injection, schedule: Q01DX011 (oral), vehicle: steriod suspending solution): 58 % of control

CC1(C)C(=O)CC[C@@]2(C)C1=CC[C@@H]1[C@@H]2CC[C@@]2(C)[C@H]1CC[C@]2(C)O
T/C (dose: 25.0 mg/kg/injection, schedule: Q01DX011 (sc), vehicle: steriod suspending solution): 105 % of control
T/C [5]: 92 % of control
T/C [6]: 87 % of control

N#Cc1cn(Cc2ccco2)c(=O)[nH]c1=O
T/C [1]: 54 % of control
T/C [2]: 84 % of control
T/C [3]: 80 % of control

CCOC(=O)CN=NNc1nc[nH]c1C(N)=O
T/C (dose: 56.0 mg/kg/injection, schedule: Q01DX011 (ip), vehicle: carboxymethylcellulose (CMC)): 58 % of control
T/C (dose: 112.0 mg/kg/injection, schedule: Q01DX011 (ip), vehicle: carboxymethylcellulose (CMC)): 106 % of control
T/C (dose: 175.0 mg/kg/injection, schedule: Q01DX011 (ip), vehicle: carboxymethylcellulose (CMC)): 81 % of control
T/C (dose: 225.0 mg/kg/injection, schedule: Q01DX011 (ip), vehicle: carboxymethylcellulose (CMC)): 27 % of control
T/C (dose: 350.0 mg/kg/injection, schedule: Q01DX011 (ip), vehicle: carboxymethylcellulose (CMC)): 58 % of control

Cc1ccc(CNc2ncnc3[nH]ncc23)cc1C
T/C [7]: 95 % of control
T/C [8]: 72 % of control
T/C [9]: 64 % of control
T/C (dose: 300.0 mg/kg/injection, schedule: Q01DX011 (ip), vehicle: methylcellulose (MC)): 68 % of control

CCC(C)C(N=C1N=CNC2=NC=NC12)C(=O)O (stereo not drawn)
T/C (dose: 12.0 mg/kg/injection, schedule: Q01DX011 (ip), vehicle: methylcellulose (MC)): 108 % of control
T/C [7]: 106 % of control
T/C [8]: 80 % of control
T/C [9]: 98 % of control

CCCCCCCCSc1ncnc2c1ncn2CC
T/C (dose: 150.0 mg/kg/injection, schedule: Q01DX011 (ip), vehicle: saline): 58 % of control
T/C (dose: 300.0 mg/kg/injection, schedule: Q01DX011 (ip), vehicle: saline): 17 % of control

CNc1ncnc2c1cnn2C1CCCO1 (stereo not drawn)
T/C (dose: 2.3 mg/kg/injection, schedule: Q01DX011 (ip), vehicle: methylcellulose (MC)): 71 % of control
T/C (dose: 4.6 mg/kg/injection, schedule: Q01DX011 (ip), vehicle: methylcellulose (MC)): 33 % of control
T/C (dose: 9.3 mg/kg/injection, schedule: Q01DX011 (ip), vehicle: methylcellulose (MC)): 14 % of control

CCCCn1nnc2c(N)nc(N)nc21
T/C [3]: 123 % of control
T/C [4]: 70 % of control
T/C (dose: 225.0 mg/kg/injection, schedule: Q01DX011 (ip), vehicle: methylcellulose (MC)): 56 % of control
